Here are results for eleven compounds from patent US5767142A, “Trisbenzimidazoles useful as topoisomerase I inhibitors” (Rutgers, The State University of New Jersey, priority 1996, dated 1998).

Read-outs that look alike come from different tables or passages of the source. A value given as a limit tells only on which side of the number the result lay.

Data set [1] has as its system human lymphoblast RPMI 8402 cells. Nature of the data set: MTT cytotoxicity assay, RPMI 8402. Type of data set: cell-based. Particulars: for IC50: Homo sapiens, RPMI 8402, 96 h, read-out: Cytotoxicity IC50, RPMI. As to the method: (§1) The cytotoxicity was determined using the as MTT-microtiter plate tetrazolinium cytotoxicity assay (MTA) following the procedures of F. Denizot et al., J. Immunol. […] The cytotoxicity assay was performed using 96-well microtiter plates. Cells were grown in suspension at 37° C. in 5% CO2 and maintained by regular passage in RPMI medium supplemented with 10% heat inactivated fetal bovine serum, L-glutamine (2 mM), penicillin (100 U/ml), and streptomycin (0.1 mg/ml). For determination of IC50, cells were exposed continuously with varying concentrations of drug concentrations and MTT assays were performed at the end of the fourth day.
A general note: Formazan colour is commonly taken as a measure of viable cells.

Data set [2] concerns CPT-K5 cells (camptothecin-resistant variant of RPMI 8402). The experiment in a line: MTT cytotoxicity assay, camptothecin-resistant CPT-K5. The format is cell-based, human. Particulars: Homo sapiens, CPT-K5, 96 h, read-out: Cytotoxicity IC50, CPT-K5. As to the method:
as §1

The target of data set [3] is T1, calf thymus topoisomerase I (Bos taurus, UniProt A0AAA9TV68).
T1 construct: plasmid YEpG DNA cleavage assay
T1 sequence (A0AAA9TV68 2-769): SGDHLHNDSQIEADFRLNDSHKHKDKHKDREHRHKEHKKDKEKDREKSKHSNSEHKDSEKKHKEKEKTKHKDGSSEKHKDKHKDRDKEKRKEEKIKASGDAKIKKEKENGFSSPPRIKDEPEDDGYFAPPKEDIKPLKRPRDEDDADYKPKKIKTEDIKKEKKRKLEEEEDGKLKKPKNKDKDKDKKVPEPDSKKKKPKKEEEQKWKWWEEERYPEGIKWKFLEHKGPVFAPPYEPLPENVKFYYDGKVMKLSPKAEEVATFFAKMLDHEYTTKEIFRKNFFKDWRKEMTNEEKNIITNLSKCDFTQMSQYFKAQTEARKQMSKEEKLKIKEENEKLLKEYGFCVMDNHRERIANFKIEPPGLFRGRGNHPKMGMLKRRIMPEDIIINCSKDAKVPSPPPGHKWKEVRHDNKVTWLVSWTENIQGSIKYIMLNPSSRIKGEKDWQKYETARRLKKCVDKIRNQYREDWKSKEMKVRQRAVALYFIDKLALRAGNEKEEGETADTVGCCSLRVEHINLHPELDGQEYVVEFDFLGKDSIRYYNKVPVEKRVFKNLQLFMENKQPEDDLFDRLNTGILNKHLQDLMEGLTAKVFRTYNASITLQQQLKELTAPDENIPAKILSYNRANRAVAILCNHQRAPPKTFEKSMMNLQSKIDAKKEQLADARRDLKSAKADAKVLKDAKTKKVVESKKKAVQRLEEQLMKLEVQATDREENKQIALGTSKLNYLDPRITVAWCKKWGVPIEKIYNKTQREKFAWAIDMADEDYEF
The experiment in a line: Topoisomerase I-mediated DNA cleavage assay (calf thymus topoisomerase I, plasmid YEpG). Type of data set: biochemical. An excerpt: DNA topoisomerase I was purified from calf thymus gland as reported previously by B. D. Halligan et al., J. Biol. Chem., 260, 2475 (1985). Plasmid YEpG was also purified by the alkali lysis method followed by phenol deproteination and CsCl/ethidium isopycnic centrifugation as described by T. Mariatis et al., Molecular Cloning, A Laboratory Manual, Cold Spring Harbor Labs, NY (1982) at pages 149-185. The end-labeling of the plasmid was accomplished as previously described by L. F. Liu et al., J. Biol. Chem., 258, 15365 (1983). The cleavage assays were performed as previously reported by A. Y. Chen et al., Cancer Res., 53, 1332 (1993). Human topoisomerase was isolated as a recombinant fusion protein using a T7 expression system.
^b Topoisomerase I cleavage values are reported as REC, Relative
Effective Concentration, i.e. concentrations relative to Hoechst 33342,
whose value is arbitrarily assumed as 1, that are able to produce the sam
cleavage on the plasmid DNA in the presence of calf thymus topoisomerase
I. Cleavage is calculated from the intensity of the strongest Hoechst

Another data set deals with mammalian tumor cells. Nature of the data set: Cytotoxicity to tumor cells, general statement. The format is cell-based. Particulars: cell line not specified.
Data set [4] deals with human epidermoid carcinoma KB3-1 cell line. Nature of the data set: MTT cytotoxicity assay, KB3-1. Particulars: KB 3-1, 96 h, 4 days continuous drug exposure. The format is cell-based. As to the method: as §1
(§2) These cells were grown as monolayer cultures at in 5% CO2 and maintained by regular passage in Dulbecco's minimal essential medium supplemented with 10% heat inactivated fetal bovine serum. KBV-1 cells were similarly maintained except they were grown in the presence of 1 μg/ml vinblastine.

For data set [5], the system named is KBV-1 cells (multidrug-resistant variant of KB3-1, overexpress MDR1). Nature of the data set: MTT cytotoxicity assay, multidrug-resistant KBV-1. The format is cell-based, human. Particulars: Homo sapiens, KB-V1, 96 h; 4 days continuous drug exposure; read-out: Cytotoxicity IC50, KBV-1. As to the method:
as §1, §2

Another data set concerns fungi. The experiment in a line: Antifungal activity.
Data set [6] has as its system CPT-K5 cells (camptothecin-resistant variant of RPMI 8402). Particulars: as reported by A. Y. Chen et al., Cancer Res., 53, 1332 (1993); cited from earlier work.
Setting [7] is: 4 days continuous drug exposure.

Regarding `c1ccc2[nH]c(-c3ccc4[nH]c(-c5ccc6[nH]cnc6c5)nc4c3)nc2c1` [Compound 10, 2-[2'-(Benzimidazol-5"-yl)benzimidazol-5'-yl]benzimidazole], in data set [1], the “Cytotoxicity towards RPMI 8402 (in words)” value is listed as “failed to exhibit significant cytotoxicity”. For the same compound, the IC50 in data set [1] came to 14 µM; in data set [2], 28 µM.
For the compound `N#Cc1ccc2[nH]c(-c3ccc4[nH]c(-c5ccc6[nH]cnc6c5)nc4c3)nc2c1` [Compound 11, 5-Cyano-2-[2'-(benzimidazol-5"-yl)benzimidazol-5'-yl]benzimidazole], the “Cytotoxicity towards RPMI 8402 (in words)” value in data set [1] was “failed to exhibit significant cytotoxicity”. Further, the IC50 in data set [1] (setting [7]) and in data set [2] (setting [7]) was above 25 µM in each case.
Turning to `CCCc1ccc2nc(-c3ccc4nc(-c5ccc6nc[nH]c6c5)[nH]c4c3)[nH]c2c1` [Compound 12, 5-Propyl-2-[2'-(benzimidazol-5"-yl)benzimidazol-5'-yl]benzimidazole], the “Potency as topoisomerase I inhibitor (in words)” value in data set [3] was “much less active than either 10, 11, or 13 as an inhibitor of topoisomerase I”. In addition, the IC50 came out at 7.6 µM in data set [1] (setting [7]) and 20 µM in data set [2] (setting [7]). The “Cytotoxicity to tumor cells (in words)” value with mammalian tumor cells is given as “weak cytotoxicity”.
Regarding `c1ccc(-c2ccc3nc(-c4ccc5nc(-c6ccc7nc[nH]c7c6)[nH]c5c4)[nH]c3c2)nc1` [Compound 14, 5-(2-Pyridyl)-2-[2'-(benzimidazol-5"-yl)benzimidazol-5'-yl]benzimidazole], the IC50 in data set [1] (setting [7]) turned out to be 0.16 µM; in data set [2] it was 5.8 µM; in data set [4], 0.05 µM; in data set [5] it was 0.09 µM. The “Antifungal activity (in words)” value in the data set with fungi was “exhibits antifungal activity”.
Turning to `c1cncc(-c2ccc3nc(-c4ccc5nc(-c6ccc7nc[nH]c7c6)[nH]c5c4)[nH]c3c2)c1` [Compound 15, 5-(3-Pyridyl)-2-[2'-(benzimidazol-5"-yl)benzimidazol-5'-yl]benzimidazole], in data set [3], the “Potency as topoisomerase I inhibitor (in words)” value was “somewhat more active than the 2-pyridyl derivative, 14, as topoisomerase I inhibitors”. In addition, the concentration for half-maximal inhibition (IC50) in data set [1] (setting [7]) came out at 0.035 µM; in data set [2] it was 2.5 µM; in data set [4], 0.02 µM; in data set [5], 0.02 µM. For the same compound, in the data set on mammalian tumor cells, the “Cytotoxicity to tumor cells (in words)” value is on record as “somewhat more active than the 2-pyridyl derivative, 14, as topoisomerase I inhibitors as well as cytotoxic agents”.
Take `c1cc(-c2ccc3nc(-c4ccc5nc(-c6ccc7nc[nH]c7c6)[nH]c5c4)[nH]c3c2)ccn1` [Compound 16, 5-(4-Pyridyl)-2-[2'-(benzimidazol-5"-yl)benzimidazol-5'-yl]benzimidazole]: the “Potency as topoisomerase I inhibitor (in words)” value in data set [3] is given as “somewhat more active than the 2-pyridyl derivative, 14, as topoisomerase I inhibitors”. Further, the half-inhibitory concentration (IC50) came out at 0.035 µM in data set [1] (setting [7]), 2.5 µM in data set [2], 0.02 µM in data set [4] and 0.01 µM in data set [5]. Also, in the data set with mammalian tumor cells, the “Cytotoxicity to tumor cells (in words)” value was “somewhat more active than the 2-pyridyl derivative, 14, as topoisomerase I inhibitors as well as cytotoxic agents”.
`N#Cc1ccc2nc(-c3ccc4nc[nH]c4c3)[nH]c2c1` [Compound 19, 5-Cyano-2-(benzimidazol-5'-yl)benzimidazole]: in data set [1] (setting [7]), the IC50 was above 25 µM.
`Brc1ccc2nc(-c3ccc4nc(-c5ccc6nc[nH]c6c5)[nH]c4c3)[nH]c2c1` [JSKIV-37, 5-Bromo-2-[2'-(benzimidazol-5"-yl)benzimidazol-5'-yl]-benzimidazole]: in data set [2], the IC50 was found to be 1.4 µM.
`Clc1ccc(-c2ccc3nc(-c4ccc5nc(-c6ccc7nc[nH]c7c6)[nH]c5c4)[nH]c3c2)cc1` [JSKIV-47, 5-(p-Chlorophenyl)-2-[2'-(benzimidazol-5"-yl)benzimidazol-5'-yl]-benzimidazole]: the IC50 in data set [1] (setting [7]) was 0.09 µM; in data set [2] (setting [7]), 0.2 µM.
Turning to `Clc1ccc2nc(-c3ccc4nc(-c5ccc6nc[nH]c6c5)[nH]c4c3)[nH]c2c1` [JSKIV-68, 5-Chloro-2-[2'-(benzimidazol-5"-yl)benzimidazol-5'-yl]-benzimidazole], the concentration for half-maximal inhibition (IC50) in data set [1] (setting [7]) amounted to 1.04 µM; in data set [2] it was 0.65 µM.
With `CC[C@@]1(O)C(=O)OCc2c1cc1n(c2=O)Cc2cc3ccccc3nc2-1` [camptothecin], the “Relative resistance of camptothecin (ratio of IC50 values of resistant versus drug sensitive cell line)” value in data set [6] is 2,500 fold.

The IC50 is the midpoint of a concentration-inhibition curve.
